Common to all, as to assay type: binding
In experiment [1] the target is T1, BDKRB2 (Homo sapiens, UniProt P30411).
T1 construct: purchased Promega (in-house HiBiT-GPCR construct library, NanoBRET)
T1 sequence (P30411 1-391): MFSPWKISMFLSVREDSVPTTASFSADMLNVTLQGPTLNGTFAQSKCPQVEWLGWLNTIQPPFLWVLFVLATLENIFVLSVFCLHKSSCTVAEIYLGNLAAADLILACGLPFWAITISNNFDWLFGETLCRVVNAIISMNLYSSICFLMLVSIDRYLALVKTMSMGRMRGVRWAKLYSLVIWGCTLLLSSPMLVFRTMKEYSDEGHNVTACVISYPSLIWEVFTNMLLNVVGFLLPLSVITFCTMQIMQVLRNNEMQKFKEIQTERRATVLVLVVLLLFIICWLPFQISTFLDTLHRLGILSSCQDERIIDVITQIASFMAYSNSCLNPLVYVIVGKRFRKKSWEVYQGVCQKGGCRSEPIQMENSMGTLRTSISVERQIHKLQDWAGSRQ
Put plainly: NanoBRET screen HiBiT-BDKRB2 in HEK293. The protocol: (§1) Each tracer candidate was screened across the entire library of HiBiT-GPCR constructs using NanoBRET as the detection modality. As depicted in Figure 4A, the specificity of interactions was evaluated through decrease in BRET due to competitive displacement of a bound tracer by excess parental compound. Each tracer was analyzed for binding to each HiBiT-GPCR fusion in the absence and in the presence of competing parental compound. Briefly, HEK293 cells were transfected with HiBiT-GPCR constructs diluted into promoterless DNA to reduce expression and maximize translocation to the cell surface. Each tracer candidate was then screened at concentrations of 1 μM and 0.1 μM across cells expressing these fusions. Cells were treated for 1.5 h with tracer either alone or in the presence of 20 μM competing parental compound (i.e., control). BRET was measured upon addition of purified LgBiT and subsequent complementation with HiBiT genetically fused to a GPCR. The specificity of interactions was assessed through a decrease in BRET signal due to competitive displacement of the bound tracer. To further gauge the robustness of these interactions, the fold response over the control (i.e., BRETtracer/BRETcontrol) was calculated. We chose a 1.5-fold response, which translates to ≥7-fold signal over noise as the minimal threshold required to score an interaction as positive. […]. Below we highlight the screening results obtained for our exemplary fluorescent tracers based on Clozapine, Amitriptyline and AZD1283.
(§2) HiBiT-GPCR DNA constructs were diluted in 10 mM Tris pH 8 to a final concentration of 0.01 μg/μL, arrayed in 96-well plates and stored at −20 °C. For transfection, HEK293 cells were suspended in Opti-MEM (without phenol red) supplemented with 2% fetal bovine serum (Seradigm) and 100 units/mL penicillin–streptomycin (Gibco) at a final concentration of 220,000 cells/mL and dispensed into white 96-well plates at 90 μL/well. Subsequent transfections and screens were carried using an Agilent Bravo Automated Liquid Handling Platform. First, the 96-well HiBiT DNA arrays were diluted 25-fold in Opti-MEM (without serum or phenol red) to a final concentration of 0.0004 μg/μL and 20 μL of the diluted DNAs were transferred into new 96-well plates. Next, promoterless carrier DNA (1 μg/μL) was diluted 25-fold (0.04 μg/μL) and then dispensed into the diluted arrays at 20 μL/well. Following brief mixing, Viafect transfection reagent (Promega) diluted 16-fold into Opti-MEM was dispensed into the plates at 40 μL/well. After mixing by pipetting, plates were incubated for 10 min on the pipetting station deck. The DNA-transfection reagent complexes were then added to plates containing cells. To facilitate the screen, 10 μL of DNA-transfection reagent complexes were added in duplicates to the top 4 and bottom 4 rows, resulting in two identical 48-well arrays per plate. Plates with transfected cells were incubated for 18–20 h at 37 °C/5% CO2. A screen of each tracer across the entire library using two different concentrations requires duplicate plates of transfected cells. Depending on the number of tracers being screened, transfections can be scaled up using the same ratios. The next day, for each tracer, four 20× screening solutions in tracer dilution buffer (Promega) were prepared: two duplicates at final concentration of 20 μM and two duplicates at a final concentration of 2 μM. A competing unmodified compound was added to one of each duplicate at a final concentration of 400 μM. The four resulting solutions were diluted 4-fold in Opti-MEM without serum or phenol red to generate 5× solutions (5 µM and 0.5 µM tracer +/− 100 μM competing compound). To screen the library, a BioTek MultiFlo FX liquid dispenser was used to dispense 22.5 µL of tracer solution to the top 4 rows and 22.5 µL tracer + competing compound solution to the 4 bottom rows. Plates were briefly mixed on an orbital shaker and incubated for 1.5 h at room temperature. […]
In general terms: BRET reads energy transfer from a luciferase to a nearby fluorophore.

Experiment [2] concerns the target T2, ADRA2C (Homo sapiens, UniProt P18825).
T2 construct: purchased Promega (in-house HiBiT-GPCR construct library, NanoBRET)
T2 sequence (P18825 1-462): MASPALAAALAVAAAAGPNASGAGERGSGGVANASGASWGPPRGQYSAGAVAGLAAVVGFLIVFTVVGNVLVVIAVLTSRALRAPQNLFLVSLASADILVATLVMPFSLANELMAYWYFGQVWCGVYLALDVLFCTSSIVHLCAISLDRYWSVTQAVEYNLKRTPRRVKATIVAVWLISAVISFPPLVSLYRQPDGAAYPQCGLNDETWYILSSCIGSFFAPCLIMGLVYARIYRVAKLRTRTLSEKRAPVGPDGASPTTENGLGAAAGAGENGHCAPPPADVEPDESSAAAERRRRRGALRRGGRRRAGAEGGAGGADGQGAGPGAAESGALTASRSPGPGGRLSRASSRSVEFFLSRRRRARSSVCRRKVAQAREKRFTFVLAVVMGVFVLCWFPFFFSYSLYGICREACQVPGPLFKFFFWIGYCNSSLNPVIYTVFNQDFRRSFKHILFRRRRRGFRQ
Put plainly: NanoBRET screen HiBiT-ADRA2C in HEK293. The protocol:
as §1, §2

Experiment [3] deals with T3, GRPR (Homo sapiens, UniProt P30550).
T3 construct: purchased Promega (in-house HiBiT-GPCR construct library, NanoBRET)
Briefly: NanoBRET screen HiBiT-GRPR in HEK293. The protocol:
as §1, §2

The target in experiment [4] is T4, OXER1 (Homo sapiens, UniProt Q8TDS5).
T4 construct: purchased Promega (in-house HiBiT-GPCR construct library, NanoBRET)
Put plainly: NanoBRET screen HiBiT-OXER1 in HEK293. The protocol: as §1, §2

Experiment [5] has as its target T5, MLNR (Homo sapiens, UniProt O43193).
T5 construct: purchased Promega (in-house HiBiT-GPCR construct library, NanoBRET)
Briefly: NanoBRET screen HiBiT-MLNR in HEK293. The protocol:
as §1, §2

For experiment [6], the target named is T6, NPFFR2 (Homo sapiens, UniProt Q9Y5X5).
T6 construct: purchased Promega (in-house HiBiT-GPCR construct library, NanoBRET)
Put plainly: NanoBRET screen HiBiT-NPFFR2 in HEK293. The procedure: as §1, §2

[7] abbreviates: tracer at 0.1μM, listed as amitriptyline-b-2-NB590.
The mark [8] stands for this setting: tracer at 1μM, listed as amitriptyline-b-2-NB590.

T4 sequence (Q8TDS5 whole entry): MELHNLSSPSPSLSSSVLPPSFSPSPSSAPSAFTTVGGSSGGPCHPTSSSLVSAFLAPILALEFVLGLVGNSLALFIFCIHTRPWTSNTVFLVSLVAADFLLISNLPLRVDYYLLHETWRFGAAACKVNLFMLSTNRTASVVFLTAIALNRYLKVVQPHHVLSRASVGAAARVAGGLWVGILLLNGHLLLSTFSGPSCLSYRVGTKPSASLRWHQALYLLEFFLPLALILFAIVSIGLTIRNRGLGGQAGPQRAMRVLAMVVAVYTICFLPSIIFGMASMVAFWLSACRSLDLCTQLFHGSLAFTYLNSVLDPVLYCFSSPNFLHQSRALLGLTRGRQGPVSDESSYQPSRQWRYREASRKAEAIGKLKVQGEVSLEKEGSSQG
T6 sequence (Q9Y5X5 whole entry): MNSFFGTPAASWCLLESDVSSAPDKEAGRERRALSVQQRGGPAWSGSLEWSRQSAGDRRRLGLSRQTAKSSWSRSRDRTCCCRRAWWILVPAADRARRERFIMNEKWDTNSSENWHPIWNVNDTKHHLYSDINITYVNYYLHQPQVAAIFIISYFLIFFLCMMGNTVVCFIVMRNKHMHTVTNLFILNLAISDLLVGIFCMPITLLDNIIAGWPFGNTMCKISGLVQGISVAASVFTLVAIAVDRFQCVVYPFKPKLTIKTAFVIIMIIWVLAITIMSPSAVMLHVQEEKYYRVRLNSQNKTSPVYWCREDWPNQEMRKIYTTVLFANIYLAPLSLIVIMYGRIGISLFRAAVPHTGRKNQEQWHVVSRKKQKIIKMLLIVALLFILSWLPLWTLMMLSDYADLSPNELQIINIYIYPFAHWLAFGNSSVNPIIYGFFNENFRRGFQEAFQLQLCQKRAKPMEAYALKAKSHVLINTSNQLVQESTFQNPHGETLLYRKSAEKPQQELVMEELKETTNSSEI
T3 sequence (P30550 whole entry): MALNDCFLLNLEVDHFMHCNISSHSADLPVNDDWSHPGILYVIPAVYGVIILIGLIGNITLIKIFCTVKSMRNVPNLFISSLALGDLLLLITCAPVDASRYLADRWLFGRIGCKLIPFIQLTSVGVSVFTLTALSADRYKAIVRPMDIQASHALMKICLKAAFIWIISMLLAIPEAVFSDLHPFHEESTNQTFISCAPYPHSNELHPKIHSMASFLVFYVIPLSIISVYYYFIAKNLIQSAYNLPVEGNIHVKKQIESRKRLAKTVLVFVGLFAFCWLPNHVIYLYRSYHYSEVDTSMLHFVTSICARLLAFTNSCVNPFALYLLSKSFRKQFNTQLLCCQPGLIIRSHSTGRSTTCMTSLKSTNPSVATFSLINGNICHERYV
T5 sequence (O43193 whole entry): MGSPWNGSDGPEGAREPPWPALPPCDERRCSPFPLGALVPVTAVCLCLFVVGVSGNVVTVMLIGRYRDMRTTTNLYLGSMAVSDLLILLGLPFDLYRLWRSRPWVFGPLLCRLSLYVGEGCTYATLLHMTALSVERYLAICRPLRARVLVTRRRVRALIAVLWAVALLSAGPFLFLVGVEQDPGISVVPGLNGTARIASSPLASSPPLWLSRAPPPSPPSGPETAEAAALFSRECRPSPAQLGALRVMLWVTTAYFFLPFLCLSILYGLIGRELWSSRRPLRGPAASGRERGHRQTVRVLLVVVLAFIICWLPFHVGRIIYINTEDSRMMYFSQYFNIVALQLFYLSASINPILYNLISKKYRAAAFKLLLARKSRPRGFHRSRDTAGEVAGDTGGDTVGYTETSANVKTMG

For `COc1ccc2[nH]c(-c3ccc(CNC(=O)CCOCCOCCOCCOCCNC(=O)CCc4ccc5n4[B-](F)(F)[N+]4=C(c6ccc[nH]6)C=CC4=C5)cc3)c(CCNC(C)=O)c2n1` [AzomelatoninICO9-2-NB590], the “NanoBRET Fold Response” value in experiment [1] (0.1μM tracer) is 0.96; in experiment [1] (1μM tracer) it was 0.93; in experiment [2] (0.1μM tracer), 1.08; in experiment [2] (1μM tracer) it was 1.17; in experiment [3] (0.1μM tracer), 0.84; in experiment [3] (1μM tracer) it was 1.22. Besides, the “NanoBRET Fold Response” value was determined as 1.11 in experiment [4] (0.1μM tracer); 0.83 in experiment [4] (1μM tracer); 0.60 in experiment [5] (0.1μM tracer); 0.87 in experiment [5] (1μM tracer); 0.91 in experiment [6] (0.1μM tracer); 1.06 in experiment [6] (1μM tracer).

Consider `CN1CCN(C2=Nc3cc(Cl)ccc3Nc3ccc(CNC(=O)CCOCCOCCOCCOCCNC(=O)CCc4ccc5n4[B-](F)(F)[N+]4=C(c6ccc[nH]6)C=CC4=C5)cc32)CC1` [Clozapine-b-2-NB590], for which the “NanoBRET Fold Response” value in experiment [1] (BDKRB2, 0.1μM tracer) was determined as 1.00; in experiment [1] (BDKRB2, 1μM tracer), 1.00; in experiment [2] (ADRA2C, 0.1μM tracer) it was 1.25; in experiment [2] (ADRA2C, 1μM tracer) it was 1.67; in experiment [3] (GRPR, 0.1μM tracer), 1.01; in experiment [3] (GRPR, 1μM tracer), 1.00. The “NanoBRET Fold Response” value in experiment [4] (OXER1, 0.1μM tracer) is 0.97; in experiment [4] (OXER1, 1μM tracer), 0.95; in experiment [5] (MLNR, 0.1μM tracer), 1.02; in experiment [5] (MLNR, 1μM tracer) it was 1.41; in experiment [6] (NPFFR2, 0.1μM tracer), 1.02; in experiment [6] (NPFFR2, 1μM tracer), 1.00.

Take `COc1ccccc1N1CCN(CCCCN2C(=O)c3ccc(CNC(=O)CCOCCNC(=O)c4ccc(CNC(=O)CCc5ccc6n5[B-](F)(F)[N+]5=C(c7ccc[nH]7)C=CC5=C6)cc4)cc3C2=O)CC1` [NAN-190-3-NB590]: the “NanoBRET Fold Response” value in experiment [1] (BDKRB2, tracer 0.1μM) is on record as 0.97; in experiment [1] (BDKRB2, tracer 1μM), 0.88; in experiment [2] (ADRA2C, tracer 0.1μM), 1.56; in experiment [2] (ADRA2C, tracer 1μM), 1.33; in experiment [3] (GRPR, tracer 0.1μM), 0.87; in experiment [3] (GRPR, tracer 1μM) it was 0.94. Besides, the “NanoBRET Fold Response” value in experiment [4] (OXER1, tracer 0.1μM) was found to be 1.34; in experiment [4] (OXER1, tracer 1μM), 0.63; in experiment [5] (MLNR, tracer 0.1μM), 1.32; in experiment [5] (MLNR, tracer 1μM), 0.66; in experiment [6] (NPFFR2, tracer 0.1μM) it was 1.02; in experiment [6] (NPFFR2, tracer 1μM), 1.01.

Consider `N#CN=C(NCCCOc1cccc(CN2CCCCC2)c1)NCCNC(=O)CCOCCOCCOCCOCCNC(=O)CCc1ccc2n1[B-](F)(F)[N+]1=C(c3ccc[nH]3)C=CC1=C2` [Aminopotentidine-2-NB590], for which the “NanoBRET Fold Response” value is 1.00 in experiment [1] (BDKRB2, tracer 0.1μM); 1.01 in experiment [1] (BDKRB2, tracer 1μM); 1.35 in experiment [2] (ADRA2C, tracer 0.1μM); 1.25 in experiment [2] (ADRA2C, tracer 1μM); 1.08 in experiment [3] (GRPR, tracer 0.1μM); 0.98 in experiment [3] (GRPR, tracer 1μM). The “NanoBRET Fold Response” value is 1.10 in experiment [4] (OXER1, tracer 0.1μM); 1.01 in experiment [4] (OXER1, tracer 1μM); 0.97 in experiment [5] (MLNR, tracer 0.1μM); 1.00 in experiment [5] (MLNR, tracer 1μM); 0.98 in experiment [6] (NPFFR2, tracer 0.1μM); 1.02 in experiment [6] (NPFFR2, tracer 1μM).

`CN(C)CCC=C1c2ccccc2CCc2ccc(C(=O)NCCNC(=O)CCOCCOCCOCCOCCNC(=O)CCc3ccc4n3[B-](F)(F)[N+]3=C(c5ccc[nH]5)C=CC3=C4)cc21` [Amitriptyline-b-2-NB590]: the “NanoBRET Fold Response” value in experiment [1] (setting [7]) came out at 1.05; in experiment [1] (setting [8]), 1.12; in experiment [2] (setting [7]), 1.08; in experiment [2] (setting [8]), 1.08; in experiment [3] (setting [7]) it was 1.05; in experiment [3] (setting [8]) it was 1.03. The “NanoBRET Fold Response” value in experiment [4] (tracer at 0.1μM) stood at 1.08; in experiment [4] (tracer at 1μM), 0.97; in experiment [5] (setting [7]) it was 1.19; in experiment [6] (tracer at 0.1μM) it was 1.00; in experiment [6] (tracer at 1μM), 1.03.

On to `COc1ccccc1N1CCN(CCCCN2C(=O)c3ccc(CNC(=O)CCOCCOCCOCCOCCNC(=O)CCc4ccc5n4[B-](F)(F)[N+]4=C(c6ccc[nH]6)C=CC4=C5)cc3C2=O)CC1` [NAN-190-2-NB590], for which the “NanoBRET Fold Response” value was found to be 1.08 in experiment [1] (BDKRB2, tracer 0.1μM); 0.98 in experiment [1] (BDKRB2, tracer 1μM); 1.22 in experiment [2] (ADRA2C, tracer 0.1μM); 0.89 in experiment [2] (ADRA2C, tracer 1μM); 0.99 in experiment [3] (GRPR, tracer 0.1μM); 0.92 in experiment [3] (GRPR, tracer 1μM). The “NanoBRET Fold Response” value is 0.95 in experiment [4] (OXER1, tracer 0.1μM); 0.67 in experiment [5] (MLNR, tracer 0.1μM); 0.97 in experiment [6] (NPFFR2, tracer 0.1μM).

As for `O=C(CCOCCOCCOCCOCCNC(=O)CCc1ccc2n1[B-](F)(F)[N+]1=C(c3ccc[nH]3)C=CC1=C2)NCCCN1CCN(C2=Nc3ccccc3Oc3ccc(Cl)cc32)CC1` [Loxapine-a-2-NB590], the “NanoBRET Fold Response” value in experiment [1] (BDKRB2, tracer 0.1μM) is 1.08; in experiment [1] (BDKRB2, tracer 1μM), 1.16; in experiment [2] (ADRA2C, tracer 0.1μM) it was 1.13; in experiment [2] (ADRA2C, tracer 1μM), 1.54; in experiment [3] (GRPR, tracer 0.1μM), 1.17; in experiment [3] (GRPR, tracer 1μM), 1.09. For the same compound, the “NanoBRET Fold Response” value is reported as 0.93 in experiment [4] (OXER1, tracer 0.1μM); 1.09 in experiment [4] (OXER1, tracer 1μM); 1.20 in experiment [5] (MLNR, tracer 0.1μM); 1.16 in experiment [5] (MLNR, tracer 1μM); 1.05 in experiment [6] (NPFFR2, tracer 0.1μM); 1.03 in experiment [6] (NPFFR2, tracer 1μM).

The values above are taken from publication PMC8151276, “An Integrated Approach toward NanoBRET Tracers for Analysis of GPCR Ligand Engagement” (Molecules, 2021).
